Consider 34 compounds from ChEMBL document CHEMBL1123299, “New antiarrhythmic agents. 2,2,5,5-Tetramethyl-3-pyrroline-3-carboxamides and 2,2,5,5-tetramethylpyrrolidine-3-carboxamindes” (J Med Chem, 1986).

Structures are written as SMILES.

Tested on in the first data set: not listed separately
In words: Acute toxicity determined after intravenal administration in mice. Type of data set: organism-based. To be noted: mouse, in vivo, iv.
Take `CN(Cc1ccccc1)C(=O)C1=CC(C)(C)NC1(C)C`: the LD50 was found to be 51 mg/kg. Compound `CC(NCCNC(=O)C1=CC(C)(C)NC1(C)C)c1cccs1` (stereo not given) yielded a 50% lethal dose (LD50) of 53 mg/kg. For the compound `CC1(C)C=C(C(=O)NCCNC(=O)C2CC=CCC2C(=O)O)C(C)(C)N1` (stereo not given), the 50% lethal dose (LD50) was found to be 1510 mg/kg. Compound `CC1(C)C=C(C(=O)NCCNC(=O)c2ccccn2)C(C)(C)N1` registered an LD50 of 88 mg/kg. Still for that read-out and setting: under `Cc1cccc(C)c1NC(=O)C(C)NCCNC(=O)C1=CC(C)(C)NC1(C)C` (stereo not given) stands 39 mg/kg; under `CC1(C)C=C(C(=O)NCCCNC(=O)C(C)(C)Oc2ccc(Cl)cc2)C(C)(C)N1`, 46 mg/kg. Regarding `CC1(C)C=C(C(=O)NCCCNCc2cccc(O)c2)C(C)(C)N1`, the LD50 was found to be 17 mg/kg. The compound `Cc1cc(Cl)ccc1OCC(=O)NCCNC(=O)C1=CC(C)(C)NC1(C)C` returned an LD50 of 36 mg/kg. The same measure, in the same setting: the figure for `CC1(C)C=C(C(=O)NCCCNC(=O)C(O)c2ccccc2)C(C)(C)N1` (stereo not given) is 52 mg/kg; for `CC1(C)C=C(C(=O)NCCNC(=O)c2ccccc2C(=O)O)C(C)(C)N1` it is 357 mg/kg. In the case of `CC1(C)C=C(C(=O)NCCCNC(=O)C2CC=CCC2C(=O)O)C(C)(C)N1` (stereo not given), the 50% lethal dose (LD50) stood at 344 mg/kg.

In turn, `Cc1cc(Cl)ccc1OCC(=O)NCCCNC(=O)C1=CC(C)(C)NC1(C)C` had an LD50 of 30 mg/kg.

For the compound `CC1(C)C=C(C(=O)NCCNC(=O)Cc2cccs2)C(C)(C)N1`, the LD50 was found to be 86 mg/kg.

Compound `CC1(C)C=C(C(=O)NCc2ccc(Cl)cc2)C(C)(C)N1` yielded an LD50 of 49 mg/kg.

With `CC1(C)C=C(C(=O)NCCCNC(=O)C2CCCCC2C(=O)O)C(C)(C)N1` (stereo not given), the LD50 came out at 753 mg/kg. Same read-out and setting: under `COc1ccc(CCNC(=O)C2=CC(C)(C)NC2(C)C)cc1OC` stands 123 mg/kg. Same read-out and setting: under `CC1(C)C=C(C(=O)NCc2ccncc2)C(C)(C)N1` stands 132 mg/kg. `CC1(C)C=C(C(=O)NCCNC(=O)c2ccc3c(c2)OCO3)C(C)(C)N1` had a median lethal dose (LD50) of 95 mg/kg. On to `CC1(C)C=C(C(=O)NCC(O)CNC(=O)C(C)(C)Oc2ccc(Cl)cc2)C(C)(C)N1` (stereo not given), for which the 50% lethal dose (LD50) stood at 69 mg/kg. This LD50 and that of the compound before are within 1.5-fold of each other.

In turn, `CC1(C)C=C(C(=O)NCCCNC(=O)c2ccc3c(c2)OCO3)C(C)(C)N1` yielded an LD50 of 76 mg/kg. `CC(=O)Nc1ccc(CNCCNC(=O)C2=CC(C)(C)NC2(C)C)cc1` registered an LD50 of 25 mg/kg. For the compound `CC1(C)C=C(C(=O)NCCNC(=O)c2cccs2)C(C)(C)N1`, the median lethal dose (LD50) was 93 mg/kg. As to `CC1(C)C=C(C(=O)NCCCCNC(=O)c2cccs2)C(C)(C)N1`, the LD50 stood at 37 mg/kg. `C=CCc1ccc(OCC(=O)NCCCNC(=O)C2CC(C)(C)NC2(C)C)c(OC)c1` (stereo not given) displayed an LD50 of 38 mg/kg. Still for that read-out and setting: under `CC1(C)C=C(C(=O)NC(c2ccccc2)c2ccccc2)C(C)(C)N1` stands 63 mg/kg; under `CC1(C)C=C(C(=O)NCCCNCc2ccncc2)C(C)(C)N1`, 94 mg/kg; under `Cc1nc2ccccc2c(=O)n1CC(O)CNC(=O)C1=CC(C)(C)NC1(C)C` (stereo not given), 73 mg/kg. Consider `CC1(C)C=C(C(=O)NCCNC(=O)C(O)c2ccccc2)C(C)(C)N1` (stereo not given), for which the LD50 stood at 85 mg/kg.

On to `CC1(C)C=C(C(=O)NCCN2C(=O)C3CC=CCC3C2=O)C(C)(C)N1` (stereo not given), for which the LD50 worked out at 182 mg/kg. On to `CC1(C)C=C(C(=O)NCCCNCc2ccc[nH]2)C(C)(C)N1`, for which the LD50 was 20 mg/kg. This LD50 is about 9.1-fold lower than that of the compound before.

For the compound `Cc1nc2ccccc2c(=O)n1CCCNC(=O)C1CC(C)(C)NC1(C)C` (stereo not given), the LD50 worked out at 53 mg/kg.

Another data set concerns Rattus norvegicus. Nature of the data set: Incidence of arrhythmias in rats after a intravenal administration at 4 mg/kg, expressed as no. of positive cases out of no. of tested cases (10).
Settings: not given
Type of data set: functional.
In the case of `CC1(C)C=C(C(=O)NCCCNC(=O)c2ccccc2C(=O)O)C(C)(C)N1`, the “No. of positive cases” value worked out at 0.

Take `CC1(C)C=C(C(=O)NCCCN2C(=O)C3CC=CCC3C2=O)C(C)(C)N1` (stereo not given): the “No. of positive cases” value stood at 2.

Turning to `CN(Cc1ccccc1)C(=O)C1=CC(C)(C)NC1(C)C`, the “No. of positive cases” value came out at 1. Regarding `CC(NCCNC(=O)C1=CC(C)(C)NC1(C)C)c1cccs1` (stereo not given), the “No. of positive cases” value was determined as 2.

As for `CC1(C)C=C(C(=O)NCCNC(=O)C2CC=CCC2C(=O)O)C(C)(C)N1` (stereo not given), the “No. of positive cases” value was determined as 0. On the same count and under the same terms, the figure for `CC1(C)C=C(C(=O)NCCNC(=O)c2ccccn2)C(C)(C)N1` is 2; for `Cc1cccc(C)c1NC(=O)C(C)NCCNC(=O)C1=CC(C)(C)NC1(C)C` (stereo not given) it is 4; for `CC1(C)C=C(C(=O)NCCCNC(=O)C(C)(C)Oc2ccc(Cl)cc2)C(C)(C)N1` it is 0. Take `CC1(C)C=C(C(=O)NCCCNCc2cccc(O)c2)C(C)(C)N1`: the “No. of positive cases” value amounted to 4.

With `Cc1cc(Cl)ccc1OCC(=O)NCCNC(=O)C1=CC(C)(C)NC1(C)C`, the “No. of positive cases” value is 2. Take `CC1(C)C=C(C(=O)NCCCNC(=O)C(O)c2ccccc2)C(C)(C)N1` (stereo not given): the “No. of positive cases” value stood at 1. On the same count and under the same terms, the figure for `CC1(C)C=C(C(=O)NCCNC(=O)c2ccccc2C(=O)O)C(C)(C)N1` is 0. Turning to `CC1(C)C=C(C(=O)NCCCNC(=O)C2CC=CCC2C(=O)O)C(C)(C)N1` (stereo not given), the “No. of positive cases” value is recorded as 0. For `Cc1cc(Cl)ccc1OCC(=O)NCCCNC(=O)C1=CC(C)(C)NC1(C)C`, the “No. of positive cases” value came to 3. In the case of `CC1(C)C=C(C(=O)NCCNC(=O)Cc2cccs2)C(C)(C)N1`, the “No. of positive cases” value is 2. As to `CC1(C)C=C(C(=O)NCc2ccc(Cl)cc2)C(C)(C)N1`, the “No. of positive cases” value was 0.

On to `CC1(C)C=C(C(=O)NCCCNC(=O)C2CCCCC2C(=O)O)C(C)(C)N1` (stereo not given), for which the “No. of positive cases” value is 0. Consider `Cc1nc2ccccc2c(=O)n1CCNC(=O)C1=CC(C)(C)NC1(C)C`, for which the “No. of positive cases” value was 4. Consider `COc1ccc(CCNC(=O)C2=CC(C)(C)NC2(C)C)cc1OC`, for which the “No. of positive cases” value is on record as 0. In the case of `CC1(C)C=C(C(=O)NCc2ccncc2)C(C)(C)N1`, the “No. of positive cases” value is 0. In the case of `CC1(C)C=C(C(=O)NCCNC(=O)c2ccc3c(c2)OCO3)C(C)(C)N1`, the “No. of positive cases” value amounted to 2. In the case of `CC1(C)C=C(C(=O)NCC(O)CNC(=O)C(C)(C)Oc2ccc(Cl)cc2)C(C)(C)N1` (stereo not given), the “No. of positive cases” value is given as 0.

`CC1(C)C=C(C(=O)NCCCNC(=O)c2ccc3c(c2)OCO3)C(C)(C)N1`: the “No. of positive cases” value came to 4.

For `CC(=O)Nc1ccc(CNCCNC(=O)C2=CC(C)(C)NC2(C)C)cc1`, the “No. of positive cases” value stood at 2. Same read-out and setting: under `CC1(C)C=C(C(=O)NCCNC(=O)c2cccs2)C(C)(C)N1` stands 3; under `CC1(C)C=C(C(=O)NCCCCNC(=O)c2cccs2)C(C)(C)N1`, 6. The same measure, in the same setting: under `C=CCc1ccc(OCC(=O)NCCCNC(=O)C2CC(C)(C)NC2(C)C)c(OC)c1` (stereo not given) stands 0; under `CC1(C)C=C(C(=O)NC(c2ccccc2)c2ccccc2)C(C)(C)N1`, 5; under `CC1(C)C=C(C(=O)NCCCNCc2ccncc2)C(C)(C)N1`, 0. Turning to `Cc1nc2ccccc2c(=O)n1CC(O)CNC(=O)C1=CC(C)(C)NC1(C)C` (stereo not given), the “No. of positive cases” value worked out at 4. For the compound `CC1(C)C=C(C(=O)NCCNC(=O)C(O)c2ccccc2)C(C)(C)N1` (stereo not given), the “No. of positive cases” value came to 0.

For `CC1(C)C=C(C(=O)NCCN2C(=O)C3CC=CCC3C2=O)C(C)(C)N1` (stereo not given), the “No. of positive cases” value stood at 0. With `CC1(C)C=C(C(=O)NCCCNCc2ccc[nH]2)C(C)(C)N1`, the “No. of positive cases” value was 4.

Consider `Cc1nc2ccccc2c(=O)n1CCCNC(=O)C1CC(C)(C)NC1(C)C` (stereo not given), for which the “No. of positive cases” value is given as 3.
